“Also recorded” adds a separate entry of the source.
Columns and labels:
[1] = system: BSp73AS cells; experiment: Oligonucleosomal DNA fragmentation (agarose gel); format: cell-based, rat; details: 6 hours, 100 μM, no serum
Procedure: To confirm the apoptosis in vivo results, the effects of quercetin, rutin, and trans-resveratrol in other apoptosis assays in Mia PACA-2 cells and BSp73AS cells in culture were conducted. BSp73AS cells are derived from a rat pancreatic carcinoma and both Mia PACA-2 and BSp73AS cells have mutated p53 and express K-ras. Human pancreatic carcinoma cell line Mia PACA-2 and rat pancreatic carcinoma BSp73AS were cultured in Dulbecco's Modified Eagle's Medium supplemented with 10% heat inactivated FBS, penicillin G (100 U/ml) and streptomycin ([…]) in a humidified atmosphere comprising 5% (v/v) CO2. When cells were 90% confluent they were detached, washed with alternating centrifugation and resuspension, plated and incubated in the same media without FBS and with the indicated concentrations of polyphenolic compounds or vehicle for up to 96 hours. Oligonucleotide DNA fragmentation, annexin staining, and PARP proteolysis assays were conducted as follows: BSp73AS pancreatic cancer cells were cultured for 6 hours in the presence or absence of 100 μM of rutin, quercetin, or trans-resveratrol. DNA was isolated as described by Gukovskaya AS, et al. (1997) Clin Invest 100: 1853-1862, which is herein incorporated by reference. […]

[2] = system: Mia PACA-2 cells; experiment: Annexin staining (flow cytometry); format: cell-based, human; details: Mia PACA-2, 72 hours, 0-100 μM, no serum
Procedure: BSp73AS cells are derived from a rat pancreatic carcinoma and both Mia PACA-2 and BSp73AS cells have mutated p53 and express K-ras. Human pancreatic carcinoma cell line Mia PACA-2 and rat pancreatic carcinoma BSp73AS were cultured in Dulbecco's Modified Eagle's Medium supplemented with 10% heat inactivated FBS, penicillin G (100 U/ml) and streptomycin ([…]) in a humidified atmosphere comprising 5% (v/v) CO2. When cells were 90% confluent they were detached, washed with alternating centrifugation and resuspension, plated and incubated in the same media without FBS and with the indicated concentrations of polyphenolic compounds or vehicle for up to 96 hours. Oligonucleotide DNA fragmentation, annexin staining, and PARP proteolysis assays were conducted as follows:
Mia PACA-2 cells were cultured for 72 hours in the presence of 0, 12, 24, 50, and 100 μM rutin, quercetin, or trans-resveratrol. About 1×10^6 cells as determined with a hemocytometer were analyzed for annexin-V binding using an Annexin V-FLUOS Staining Kit (Boehringer Mannheim, Germany). […] Cells were analyzed on a FACScan flow cytometer (Becton Dickinson Immunocytometry System, San Jose, Calif.) equipped with a […] air-cooled 488 nm argon-ion laser. […]

[3] = system: PARP; experiment: PARP proteolysis (Western blot); format: cell-based, rat; details: BSp73AS, 6 hours, 100 μM
Procedure: BSp73AS cells were cultured for 6 hours and Mia PACA-2 cells were cultured for 24 hours in the presence or absence of 100 μM of each rutin, quercetin or trans-resveratrol and with or without 50 μM of each […]. The cells were washed twice with PBS and lysed by incubating for 20 minutes at 4° C. in lysis buffer comprising 0.15 M NaCl, 50 mM Tris (pH 7.2), 1% deoxycholic acid (wt/vol), 1% Triton X-100 (wt/vol), 0.1% […] (wt/vol) and 1 mM PMSF, as well as 5 μg/ml each of protease inhibitors, pepstatin, leupeptin, chymostatin, antipain, and aprotinin. Then the cell lysates were centrifuged for 20 minutes at 15,000 g at 4° C. The supernatants were separated by 4-20% SDS-PAGE for 2 hours at 120 V using precast Tris-glycine gels and a Mini-Cell gel apparatus (Novex, San Diego, Calif.). Separated proteins were electrophoretically transferred to a nitrocellulose membrane for 2 hours at 30 V using a Novex Blot Module (Novex, San Diego, Calif.). Nonspecific binding was blocked by 1 hour incubation of nitrocellulose membranes in 5% (wt/vol) nonfat dry milk in Tris-buffered saline (TBS; pH 7.5). Blots were then incubated overnight at 4° C. with rabbit polyclonal antibody against poly (ADP-ribose) polymerase (PARP) (Santa Cruz Biotechnology, Santa Cruz, Calif.) (1;3,000) in an antibody buffer comprising (1% (wt/vol) non-fat dry milk in TTBS (0.05% vol/vol) Tween-20 in TBS), washed 3 times with TTBS and finally incubated for 1 hour with a peroxidase-labeled secondary antibody in the antibody buffer. Blots were developed for visualization using ECL detection kit. To test for equal protein loading, the blots were stripped and re-probed with an antibody against tubulin. When processing of a protein was measured, a decrease in unprocessed full-length form was measured concomitantly with the increase in the cleaved, active form. The experiment was repeated 3 times with similar results.

[4] = system: caspase-3; experiment: Caspase-3 (DEVDase) activity, fluorogenic assay with DEVD-AMC; format: cell-based, human; details: Mia PACA-2, up to 24 hours, 100 μM, no serum (FIG. 7B)
Procedure: To determine whether a polyphenolic compound activates caspase-3 activity in a time-dependent manner, the following assay was conducted. BSp73AS cells were cultured for 0, 1, 3, and 6 hours and Mia PACA-2 cells were cultured in the absence of serum or growth factors for 0, 1, 4, 6, and 24 hours in the presence of 100 μM or quercetin, trans-resveratrol, rutin, or control. Caspase-3 activity was measured in cell lysates with a fluorogenic assay using DEVD-AMC as a substrate. The results were normalized to the DEVDase activity in untreated cells.
To determine the role of caspases in the effects of combinations of agents on apoptosis, the effects of caspase-3 activity (DEVDase activity) as well as the effect of the broad spectrum caspase inhibitor, Z-VAD, on apoptosis was measured. Specifically, Mia PACA-2 cells were cultured for 72 hours in the presence of serum with or without 100 μM Z-VAD, 15 μM DPI, 100 μM trans-resveratrol, 100 μM genistein, a combination of trans-resveratrol and DPI, and a combination of genistein and DPI. DEVDase activity was measured in whole cell lysates with a fluorimetric assay.
A fluorimetric assay for caspase-3 activity was conducted. […] Cytosolic protein extracts (supernatants) were collected, protein concentrations were determined and the extracts were aliquoted and stored at −80° C. […] The reaction was started by addition of caspase-3 substrate, the readings were taken at 0, 60, 90, and 120 minutes. Fluorescence was calibrated using a standard curve for AMC. The data were expressed as mol AMC/mg protein/min.
Mia PACA-2 cells were cultured in the absence of serum or growth factors for 24 hours in the presence or absence of quercetin (100 μM), trans-resveratrol (100 μM), Z-VAD FMK (50 μM), cyclosporin A (5 μM) and/or aristolochic acid (50 μM). […] The reaction was started by addition of caspase-3 substrate, the readings were taken at 0, 60, 90, and 120 minutes. Fluorescence was calibrated using a standard curve for AMC. […] The data were expressed as mol AMC/mg protein/min. […]

Compound | oligonucleosomal DNA fragmentation [1] | annexin staining (apoptosis) [2] | PARP cleavage [3] | caspase-3 activation [4]
O=c1c(O)c(-c2ccc(O)c(O)c2)oc2cc(O)cc(O)c12 [quercetin] | caused an increase | increase annexin staining; also recorded: more potent in causing apoptosis than trans-resveratrol | cleaved to its activated form | caused caspase-3 activation
Oc1ccc(/C=C/c2cc(O)cc(O)c2)cc1 [trans-resveratrol] | caused an increase | increase annexin staining | cleaved to its activated form | caused caspase-3 activation

Source: patent US6953786B2, “Compositions comprising plant-derived polyphenolic compounds and inhibitors of reactive oxygen species and methods of using thereof” (The Regents of the University of California, priority 2002, dated 2005)
